Patent US20240360177A1, “PEPTIDES WITH ANTIMICROBIAL ACTIVITIES” (priority 2021, published 2024)
Converted amounts (≈) assume the structure as drawn. Non-standard residues stand in square brackets, D forms with d. Residues, ends and D or L forms follow the SMILES beside them. Ava = NCCCCC(=O)O

Legend:
C. auris = conditions: 24 h
[1] = test system: Pseudomonas aeruginosa ATCC 27853; type: cell-based
in vitro = conditions: human, EC50 cytotoxicity in HepG2, intracellular ATP assay
C. gattii = conditions: 72 h
C. tropicalis = conditions: 24 h
C. glabrata = conditions: 24 h
Fusarium spp. = conditions: 48 h
C. albicans = conditions: 24 h
[2] = test system: Escherichia coli ATCC 25922; type: cell-based
C. dubliniensis = conditions: 24 h
C. neoformans = conditions: 72 h
C. parapsilosis = conditions: 24 h
C. krusei = conditions: 24 h
Scedosporium spp. = conditions: 72 h
[3] = test system: Staphylococcus aureus ATCC 29213; type: cell-based

| Structure (SMILES) | MIC C. auris (C. auris) | EC50 (in vitro) | MIC C. gattii (C. gattii) | MIC C. tropicalis (C. tropicalis) | MIC C. glabrata (C. glabrata) | Activity at 24 h MIC50 against Candida spp. (Candida spp.) | Activity at 24 h MIC90 against Candida spp. (Candida spp.) | Activity at 48 h MIC50 against Candida spp. (Candida spp.) | Activity at 48 h MIC90 against Candida spp. (Candida spp.) | MIC Range Fusarium spp. (Fusarium spp.) | MIC C. albicans (C. albicans) | MIC Range Filamentous Fungi (Filamentous Fungi) | MIC C. dubliniensis (C. dubliniensis) | MIC Range Cryptococcus spp. (Cryptococcus spp.) | MIC C. neoformans (C. neoformans) | MIC C. parapsilosis (C. parapsilosis) | MIC C. krusei (C. krusei) | MIC Range Scedosporium spp. (Scedosporium spp.) | MIC Range Lomentospora prolificans (Lomentospora prolificans) | other results |
| --- | --- | --- | --- | --- | --- | --- | --- | --- | --- | --- | --- | --- | --- | --- | --- | --- | --- | --- | --- | --- |
| N=C(N)NCCC[C@@H](N)C(=O)N[C@@H](CCCNC(=N)N)C(=O)N[C@H](CCCNC(=N)N)C(=O)NCCCCC(=O)N[C@H](CCCNC(=N)N)C(=O)N[C@@H](CCCNC(=N)N)C(=O)N[C@H](CCCNC(=N)N)C(=O)NCCCCC(=O)N[C@H](CCCNC(=N)N)C(=O)N[C@@H](CCCNC(=N)N)C(=O)N[C@H](CCCNC(=N)N)C(=O)N[C@@H](CCCNC(=N)N)C(=O)NCCCCC(=O)N[C@H](CCCNC(=N)N)C(=O)N[C@@H](CCCNC(=N)N)C(=O)N[C@H](CCCNC(=N)N)C(=O)N[C@@H](CCCNC(=N)N)C(N)=O [SEQ ID NO: 18, rRr-(Ava)-rRr-(Ava)-rRrR-(Ava)-rRrR-NH2] (H-[dR]R[dR][Ava][dR]R[dR][Ava][dR]R[dR]R[Ava][dR]R[dR]R-NH2) | 0.25 µg/mL (≈ 0.1 µM) | > 300 µg/mL | 0.25 µg/mL (≈ 0.1 µM) | 0.5 µg/mL (≈ 0.2 µM) | 0.5 µg/mL (≈ 0.2 µM) | 0.5 µg/mL | 1 µg/mL | 0.5 µg/mL | 2 µg/mL | 0.25 to 0.5 µg/mL | 1 µg/mL (≈ 0.4 µM) | 0.25 to 0.5 µg/mL | 0.5 µg/mL (≈ 0.2 µM) | 0.25 to 0.5 µg/mL | 0.25 µg/mL (≈ 0.1 µM) | 0.25 µg/mL (≈ 0.1 µM) | 0.5 µg/mL (≈ 0.2 µM) | 0.25 to 0.5 µg/mL | 0.5 µg/mL (≈ 0.2 µM) | MIC Pseudomonas aeruginosa [1]: 64 µg/mL (≈ 25.6 µM); MIC Escherichia coli [2]: 32 µg/mL (≈ 12.8 µM); MIC Staphylococcus aureus [3]: 16 µg/mL (≈ 6.4 µM) |
| N=C(N)NCCC[C@@H](N)C(=O)N[C@@H](CCCNC(=N)N)C(=O)N[C@H](CCCNC(=N)N)C(=O)NCCCCC(=O)N[C@H](CCCNC(=N)N)C(=O)N[C@@H](CCCNC(=N)N)C(=O)NCCCCC(=O)N[C@H](CCCNC(=N)N)C(=O)N[C@@H](CCCNC(=N)N)C(=O)NCCCCC(=O)N[C@H](CCCNC(=N)N)C(=O)N[C@@H](CCCNC(=N)N)C(=O)N[C@H](CCCNC(=N)N)C(N)=O [SEQ ID NO: 28, rRr-(Ava)-rR-(Ava)-rR-(Ava)-rRr-NH2] (H-[dR]R[dR][Ava][dR]R[Ava][dR]R[Ava][dR]R[dR]-NH2) | >32 µg/mL |  | 4 µg/mL (≈ 2.13 µM) | 1 µg/mL (≈ 0.533 µM) | 4 µg/mL (≈ 2.13 µM) | 8 µg/mL | >32 µg/mL | 8 µg/mL | >32 µg/mL |  | 2 µg/mL (≈ 1.07 µM) |  | 1 µg/mL (≈ 0.533 µM) | 2 to 8 µg/mL | 8 µg/mL (≈ 4.26 µM) | 0.5 µg/mL (≈ 0.266 µM) | 8 µg/mL (≈ 4.26 µM) | 4 µg/mL (≈ 2.13 µM) | 32 µg/mL (≈ 17.1 µM) |  |
| N=C(N)NCCC[C@@H](N)C(=O)N[C@@H](CCCNC(=N)N)C(=O)N[C@H](CCCNC(=N)N)C(=O)N1CCC[C@H]1C(=O)N[C@H](CCCNC(=N)N)C(=O)N[C@@H](CCCNC(=N)N)C(=O)N[C@H](CCCNC(=N)N)C(=O)N1CCC[C@H]1C(=O)N[C@H](CCCNC(=N)N)C(=O)N[C@@H](CCCNC(=N)N)C(=O)N[C@H](CCCNC(=N)N)C(=O)N1CCC[C@H]1C(=O)N[C@H](CCCNC(=N)N)C(=O)N[C@@H](CCCNC(=N)N)C(=O)N[C@H](CCCNC(=N)N)C(N)=O [SEQ ID NO: 66, rRr-P-rRr-P-rRr-P-rRr-NH2] (H-[dR]R[dR]P[dR]R[dR]P[dR]R[dR]P[dR]R[dR]-NH2) | 8 µg/mL (≈ 3.67 µM) | > 300 µg/mL | 1 µg/mL (≈ 0.458 µM) | 0.25 µg/mL (≈ 0.115 µM) | 0.5 µg/mL (≈ 0.229 µM) | 0.5 µg/mL | 8 µg/mL | 0.5 µg/mL | 16 µg/mL | 0.12 to 8 µg/mL | 0.25 µg/mL (≈ 0.115 µM) | 0.12 to 8 µg/mL | 0.25 µg/mL (≈ 0.115 µM) | 0.5 to 1 µg/mL | 0.5 µg/mL (≈ 0.229 µM) | 0.25 µg/mL (≈ 0.115 µM) | 0.5 µg/mL (≈ 0.229 µM) | 0.5 to 2 µg/mL | 2 µg/mL (≈ 0.916 µM) |  |
| N=C(N)NCCC[C@@H](N)C(=O)N[C@@H](CCCNC(=N)N)C(=O)N[C@H](CCCNC(=N)N)C(=O)NCCCCC(=O)N[C@H](CCCNC(=N)N)C(=O)N[C@@H](CCCNC(=N)N)C(=O)N[C@H](CCCNC(=N)N)C(=O)NCCCCC(=O)N[C@H](CCCNC(=N)N)C(=O)N[C@@H](CCCNC(=N)N)C(=O)N[C@H](CCCNC(=N)N)C(=O)NCCCCC(=O)N[C@H](CCCNC(=N)N)C(=O)N[C@@H](CCCNC(=N)N)C(=O)N[C@H](CCCNC(=N)N)C(N)=O [SEQ ID NO: 22, rRr-(Ava)-rRr-(Ava)-rRr-(Ava)-rRr-NH2] (H-[dR]R[dR][Ava][dR]R[dR][Ava][dR]R[dR][Ava][dR]R[dR]-NH2) | 2 µg/mL (≈ 0.914 µM) |  | 0.5 µg/mL (≈ 0.228 µM) | 0.5 µg/mL (≈ 0.228 µM) | 0.5 µg/mL (≈ 0.228 µM) | 1 µg/mL | 8 µg/mL | 2 µg/mL | 32 µg/mL | 0.5 to 16 µg/mL | 0.5 µg/mL (≈ 0.228 µM) | 0.5 to 16 µg/mL | 0.25 µg/mL (≈ 0.114 µM) | 0.5 to 1 µg/mL | 1 µg/mL (≈ 0.457 µM) | 0.25 µg/mL (≈ 0.114 µM) | 1 µg/mL (≈ 0.457 µM) | 1 to 2 µg/mL | 2 µg/mL (≈ 0.914 µM) |  |
| N=C(N)NCCC[C@@H](N)C(=O)N[C@@H](CCCNC(=N)N)C(=O)N[C@H](CCCNC(=N)N)C(=O)N1CCC[C@H]1C(=O)N[C@H](CCCNC(=N)N)C(=O)N[C@@H](CCCNC(=N)N)C(=O)N1CCC[C@H]1C(=O)N[C@H](CCCNC(=N)N)C(=O)N[C@@H](CCCNC(=N)N)C(=O)N1CCC[C@H]1C(=O)N[C@H](CCCNC(=N)N)C(=O)N[C@@H](CCCNC(=N)N)C(=O)N[C@H](CCCNC(=N)N)C(N)=O [SEQ ID NO: 70, rRr-P-rR-P-rR-P-rRr-NH2] (H-[dR]R[dR]P[dR]RP[dR]RP[dR]R[dR]-NH2) | >32 µg/mL |  | 4 µg/mL (≈ 2.14 µM) | 1 µg/mL (≈ 0.535 µM) | 4 µg/mL (≈ 2.14 µM) | 4 µg/mL | >32 µg/mL | 8 µg/mL | >32 µg/mL |  | 0.5 µg/mL (≈ 0.267 µM) |  | 1 µg/mL (≈ 0.535 µM) | 1 to 8 µg/mL | 8 µg/mL (≈ 4.28 µM) | 2 µg/mL (≈ 1.07 µM) | 2 µg/mL (≈ 1.07 µM) | 8 µg/mL (≈ 4.28 µM) | 32 µg/mL (≈ 17.1 µM) |  |
